Reference: patent publication US20240140941A1, “DERIVATIVE OF 2,5-DIKETOPIPERAZINE COMPOUND, AND PREPARATION METHOD THEREFOR, PHARMACEUTICAL COMPOSITION THEREOF AND USE THEREOF” (DALIAN WZ PROBIOTICS AD HEALTH CO., LTD, priority 2020, published 2024)
Where a name gives a salt, the structure may show the parent alone. Read-outs that look alike come from different tables or passages of the source. Blank lines part the entries; values can stand above or below the compound they belong to.

Assays:
BxPC-3 = assay: Inhibition test on cell proliferation (MTT), BxPC-3; format: cell-based, human; details: read-out: IC50 (nM) BxPC-3
Description: (§1) Tumor cells (NCI-H460, BxPC-3, HT-29, HCC-LM3) in the logarithmic growth phase were digested, centrifuged, and the supernatants were removed. Cells were resuspended by adding fresh culture medium, and counted using a cell counting plate. 100 μL of culture medium (containing cells) was added to a 96-well plate according to the standard of 2000 to 6000 cells per well and incubated in an incubator (37° C., 5% CO2) for 24 hours. After the cells were completely adhered to the wall, the test sample and Plinabulin were diluted to different concentrations using fresh culture medium, and 4 wells were set for each concentration. After 72 hours of drug treatment, the culture medium was removed, and 20 μL of MTT at a concentration of 5 mg/mL was added to each well. After 3-4 hours in the incubator, the MTT was discarded, and 100 μL of DMSO was added to each well, and placed in a 96-well plate shaker to completely dissolve the purple formazan. Subsequently, the absorbance (OD value) was detected at a wavelength of 490 nm using a microplate reader. The experiment also required setting up zero-setting wells (blank culture medium, MTT, DMSO). Cell inhibition rate=1−(OD value of drug-dosed group−OD value of zero-setting group)/(OD value of blank group−OD value of zero-setting group)×100%.

NCI-H460 = assay: Inhibition test on cell proliferation (MTT), NCI-H460; format: cell-based, human
Description: as §1

HT-29 = assay: Inhibition test on cell proliferation (MTT), HT-29; format: cell-based, human; details: 72 hours of drug treatment
Description: as §1

HCC-LM3 = assay: Inhibition test on cell proliferation (MTT), HCC-LM3; format: cell-based, human; details: read-out: IC50 (nM) HCC-LM3
Description: as §1

[1] = 72 hours of drug treatment, MTT, mesylate
[2] = 72 hours of drug treatment, MTT, mesylate, read-out: IC50 (nM) NCI-H460
[3] = Homo sapiens, BXPC-3, 72 h, 72 hours of drug treatment, MTT
[4] = Homo sapiens, NCI-H460, 72 h, 72 hours of drug treatment, MTT, read-out: IC50 (nM) NCI-H460
[5] = 72 hours of drug treatment, MTT, hydrochloride
[6] = 72 hours of drug treatment, MTT, hydrochloride, read-out: IC50 (nM) NCI-H460
[7] = Homo sapiens, HCCLM3, 72 h, 72 hours of drug treatment, MTT

Compound: CC(C)c1c(/C=c2\[nH]c(=O)/c(=C/c3cccc(C(=O)c4ccc(F)cc4)c3)[nH]c2=O)ncn1CCCN1CCN(C)CC1 [PLN-2-21, (3Z,6Z)-3-(3-(p-fluorobenzoyl)phenyl)methylene-6-((5-isopropyl-1-(3-N-methylpiperazinyl)propylimidazol-4-yl)methylene)piperazine-2,5-dione]
IC50 (BxPC-3; [3]): 15.3 ± 1.83 nM
IC50 (NCI-H460; [4]): 23.9 ± 1.02 nM
IC50 (HT-29; Homo sapiens, HT-29, 72 h): 13.8 ± 3.08 nM

Compound: CC(C)c1c(/C=c2\[nH]c(=O)/c(=C/c3cccc(F)c3)[nH]c2=O)ncn1CCCN1CCO[C@H](C)C1 [PLN-2-56-1, (3Z,6Z)-3-(3-Fluorophenyl)methylene-6-(5-isopropyl-1-(3-(R)-(2-methylmorpholinyl)propylimidazol-4-yl)methylene)piperazine-2,5-dione, hydrochloride]
IC50 (BxPC-3; [5]): 4.99 ± 0.19 nM
IC50 (NCI-H460; [6]): 7.69 ± 0.28 nM
IC50 (HT-29; hydrochloride): 4.43 ± 0.13 nM
IC50 (HCC-LM3; [5]): 4.72 ± 0.73 nM

Compound: CC(C)c1c(/C=c2\[nH]c(=O)/c(=C/c3cccc(F)c3)[nH]c2=O)ncn1CCCN1CCOC(COCc2ccccc2)C1 (centres unmarked) [PLN-2-60, (3Z,6Z)-3-(3-Fluorophenyl)methylene-6-(5-isopropyl-1-(3-(2-(benzyloxymethyl)morpholinyl)propylimidazol-4-yl)methylene)piperazine-2,5-dione]
melting point: 157 to 159 °C
IC50 (BxPC-3; Homo sapiens, BXPC-3, 72 h): 27.2 ± 1.42 nM
IC50 (NCI-H460; Homo sapiens, NCI-H460, 72 h, read-out: IC50 (nM) NCI-H460, 72 hours of drug treatment, MTT): 59.67 ± 0.3 nM
IC50 (HCC-LM3; Homo sapiens, HCCLM3, 72 h): 49.2 ± 1.3 nM

Compound: CC(C)c1c(/C=c2\[nH]c(=O)/c(=C/c3cccc(C(=O)c4ccc(F)cc4)c3)[nH]c2=O)ncn1CCCN1CCNCC1 [PLN-2-16, (3Z,6Z)-3-(3-(p-fluorobenzoyl)phenyl)methylene-6-((5-isopropyl-1-(3-piperazinyl)propylimidazol-4-yl)methylene)piperazine-2,5-dione]
IC50 (BxPC-3; [3]): 5.92 ± 3.74 nM
IC50 (NCI-H460; [4]): 25.6 ± 9.64 nM
IC50 (HT-29; Homo sapiens, HT-29, 72 h): 11.1 ± 1.87 nM

Compound: CCOCC1CN(CCCn2cnc(/C=c3\[nH]c(=O)/c(=C/c4cccc(F)c4)[nH]c3=O)c2C(C)C)CCO1 (centres unmarked) [PLN-2-58, (3Z,6Z)-3-(3-Fluorophenyl)methylene-6-(5-isopropyl-1-(3-(2-(ethoxymethyl)morpholinyl)propylimidazol-4-yl)methylene)piperazine-2,5-dione]
melting point: 202 to 204 °C
IC50 (BxPC-3; [3]): 8.1 ± 1.44 nM
IC50 (NCI-H460; [4]): 11.8 ± 1.82 nM
IC50 (HCC-LM3; [7]): 16.7 ± 0.98 nM

Compound: CC(C)c1c(/C=c2\[nH]c(=O)/c(=C/c3cccc(Oc4ccc(F)cc4)c3)[nH]c2=O)ncn1CCCN1CCNCC1 [PLN-2-18]
melting point: 176 to 178 °C
IC50 (NCI-H460; [4]): 99.72 ± 0.82 nM

Compound: CC(C)c1c(/C=c2\[nH]c(=O)/c(=C/c3cccc(C(=O)c4ccc(F)cc4)c3)[nH]c2=O)ncn1CCCN1CCN(C(=O)C2CCC2)CC1 [PLN-2-36, (3Z,6Z)-3-(3-(p-fluorobenzoyl)phenyl)methylene-6-((5-isopropyl-1-(3-N-cyclobutanoylpiperazinyl)propylimidazol-4-yl)methylene)piperazine-2,5-dione]
IC50 (BxPC-3; [3]): 2.25 ± 1.22 nM
IC50 (NCI-H460; [4]): 4.31 ± 0.59 nM
IC50 (HT-29; Homo sapiens, HT-29, 72 h): 2.97 ± 0.51 nM

Compound: CCCOCC1CN(CCCn2cnc(/C=c3\[nH]c(=O)/c(=C/c4cccc(F)c4)[nH]c3=O)c2C(C)C)CCO1 (centres unmarked) [PLN-2-59, (3Z,6Z)-3-(3-fluorophenyl)methylene-6-(5-isopropyl-1-(3-(2-(propoxymethyl)morpholinyl)propylimidazol-4-yl)methylene)piperazine-2,5-dione]
melting point: 178 to 180 °C
IC50 (BxPC-3; [3]): 15.5 ± 0.74 nM
IC50 (NCI-H460; [4]): 27.4 ± 0.52 nM
IC50 (HCC-LM3; [7]): 23.3 ± 2.49 nM

Compound: O=c1[nH]/c(=C\c2ncn(CCCN3CCOCC3)c2C2CC2)c(=O)[nH]/c1=C\c1ccccc1 [PLN-2-6, (3Z,6Z)-3-benzylidene-6-((5-cyclopropyl-1-(−3-morpholinyl)propylimidazol-4-yl)methylene)piperazine-2,5-dione]
IC50 (BxPC-3; [3]): 27.7 ± 0.94 nM
IC50 (NCI-H460; [4]): 33.5 ± 0.46 nM
IC50 (HT-29; Homo sapiens, HT-29, 72 h): 25.3 ± 3.54 nM
IC50 (HCC-LM3; [7]): 16.6 ± 0.66 nM

Compound: O=c1[nH]/c(=C\c2ncn(CCCN3CCOCC3)c2C2CC2)c(=O)[nH]/c1=C\c1cccc(F)c1 [PLN-2-10-2, (3Z,6Z)-3-(3-Fluorophenyl)methylene-6-((5-cyclopropyl-1-(3-morpholinyl)propylimidazol-4-yl)methylene)piperazine-2,5-dione, mesylate]
IC50 (BxPC-3; [1]): 12.6 ± 0.96 nM
IC50 (NCI-H460; [2]): 11.2 ± 2.04 nM
IC50 (HT-29; mesylate): 13.2 ± 2.15 nM
IC50 (HCC-LM3; [1]): 13.3 ± 4.02 nM

The remaining lines, values ahead:

IC50 (BxPC-3; [1]): 3.66 ± 1.15 nM
IC50 (NCI-H460; [2]): 4.6 ± 1.33 nM
IC50 (HT-29; mesylate): 3.55 ± 0.04 nM
IC50 (HCC-LM3; [1]): 3.99 ± 0.08 nM
Compound: CC(C)c1c(/C=c2\[nH]c(=O)/c(=C/c3cc(F)cc(F)c3)[nH]c2=O)ncn1CCCN1CCOCC1 [PLN-2-62-2, (3Z,6Z)-3-(3,5-Difluorophenyl)methylene-6-((5-isopropyl-1-(3-morpholinyl)propylimidazol-4-yl)methylene)piperazine-2,5-dione, mesylate]

IC50 (BxPC-3; [3]): 1.33 ± 0.19 nM
IC50 (NCI-H460; [4]): 1.95 ± 0.08 nM
IC50 (HT-29; Homo sapiens, HT-29, 72 h): 1.42 ± 0.46 nM
IC50 (HCC-LM3; [1]): 1.85 ± 0.27 nM
Compound: CC(C)c1c(/C=c2\[nH]c(=O)/c(=C/c3cccc(C(=O)c4ccc(F)cc4)c3)[nH]c2=O)ncn1CCCN1CCOCC1 [PLN-2-1-2, (3Z,6Z)-3-(3-(p-Fluorobenzoyl)phenyl)methylene-6-((5-isopropyl-1-(3-morpholinyl)propylimidazol-4-yl)methylene)piperazine-2,5-dione, mesylate]

melting point: 220 to 222 °C
Compound: CC(C)c1c(/C=c2\[nH]c(=O)/c(=C/c3ccccc3)[nH]c2=O)ncn1CCCN1CCOCC1 (as salt: hydrochloride) [PLN-2-5-1, (3Z,6Z)-3-Benzylidene-6-((5-isopropyl-1-(3-morpholinyl)propylimidazol-4-yl)methylene)piperazine-2,5-dione, hydrochloride]

IC50 (BxPC-3; [5]): 14.1 ± 1.23 nM
IC50 (NCI-H460; [6]): 17.5 ± 0.71 nM
IC50 (HT-29; hydrochloride): 10.6 ± 3.68 nM
IC50 (HCC-LM3; [5]): 12.9 ± 1.61 nM
Compound: CC(C)c1c(/C=c2\[nH]c(=O)/c(=C/c3cccc(F)c3)[nH]c2=O)ncn1CCCN1CCO[C@@H](C)C1 [PLN-2-57-1, (3Z,6Z)-3-(3-Fluorophenyl)methylene-6-(5-isopropyl-1-(3-S)—(−2-methylmorpholinyl)propylimidazol-4-yl)methylene)piperazine-2,5-dione, hydrochloride]

melting point: 173 to 175 °C
Compound: CC(C)c1c(/C=c2\[nH]c(=O)/c(=C/c3cccc(Oc4ccc(F)cc4)c3)[nH]c2=O)ncn1CCCN1CCOCC1 (as salt: hydrochloride) [PLN-2-2-1]

melting point: 232.2 to 234.2 °C
Compound: CC(C)c1c(/C=c2\[nH]c(=O)/c(=C/c3cccc(F)c3)[nH]c2=O)ncn1CCCN1CCO[C@@H](C)C1 (as salt: hydrochloride) [PLN-2-57-1, (3Z,6Z)-3-(3-Fluorophenyl)methylene-6-(5-isopropyl-1-(3-S)—(−2-methylmorpholinyl)propylimidazol-4-yl)methylene)piperazine-2,5-dione, hydrochloride]

IC50 (BxPC-3; [3]): 8.8 ± 0.16 nM
IC50 (NCI-H460; [4]): 15.2 ± 2.82 nM
IC50 (HT-29; Homo sapiens, HT-29, 72 h): 13.4 ± 2.08 nM
Compound: O=c1[nH]/c(=C\c2ncn(CCCN3CCOCC3)c2C2CC2)c(=O)[nH]/c1=C\c1cc(F)ccc1F [PLN-2-8, (3Z,6Z)-3-(2,5-difluorophenyl)methylene-6-((5-cyclopropyl-1-(−3-morpholinyl)propylimidazol-4-yl)methylene)piperazine-2,5-dione]

melting point: 232.8 to 234.8 °C
Compound: CC(C)c1c(/C=c2\[nH]c(=O)/c(=C/c3cccc(F)c3)[nH]c2=O)ncn1CCCN1CCO[C@H](C)C1 (as salt: hydrochloride) [PLN-2-56-1, (3Z,6Z)-3-(3-Fluorophenyl)methylene-6-(5-isopropyl-1-(3-(R)-(2-methylmorpholinyl)propylimidazol-4-yl)methylene)piperazine-2,5-dione, hydrochloride]

melting point: 174 to 176 °C
Compound: CC(C)c1c(/C=c2\[nH]c(=O)/c(=C/c3cc(F)ccc3F)[nH]c2=O)ncn1CCCN1CCOCC1 (as salt: hydrochloride) [PLN-2-7-1, (3Z,6Z)-3-(2,5-Difluorophenyl)methylene-6-((5-isopropyl-1-(3-morpholinyl)propylimidazol-4-yl)methylene)piperazine-2,5-dione, hydrochloride]

IC50 (BxPC-3; [1]): 5.14 ± 0.52 nM
IC50 (NCI-H460; [2]): 8.49 ± 0.72 nM
IC50 (HT-29; mesylate): 5.84 ± 1.66 nM
IC50 (HCC-LM3; [1]): 6.08 ± 0.51 nM
Compound: CC(C)c1c(/C=c2\[nH]c(=O)/c(=C/c3cccc(F)c3)[nH]c2=O)ncn1CCCN1CCOCC1 [PLN-2-9-2, mesylate]
